Assay results taken from patent US4874773A, “3-Aminocarbonyl-1,4-dihydropyridine-5-carboxylic acid compounds, and pharmaceutical composition containing the same” (priority 1985, dated 1989).
“Also recorded” adds a separate entry of the source.

Experiments:
[1] = system: Spontaneously hypertensive male rats; experiment: Experiment 1-1 Hypotensive activity (oral, conscious spontaneously hypertensive rats); type: in vivo, rat; details: for Recovering time / Time for recovering 1/2 of max. hypotension / Time until reaching to max. hypotension / Maximum hypotension: 10 mg/kg oral; for Maximum hypotension: mean blood pressure; for hypotensive activity (in words): Table 4, comparison with nifedipine and nicardipine hydrochloride where stated
Protocol: Spontaneously hypertensive male rats (13-15 week age, one group: 3 rats) were used. […] The rats were fixed in a Howlman cage without fasting, and the femoral arterial pressure was measured by a direct method without anesthesia with a cannula which was previously inserted into the femoral artery of the animal, via a pressure transducer (MPU-0.5, manufactured by Nippon Koden K.K.). The test compounds were orally administered in the form of a suspension in 0.5% methyl cellulose solution in a dose of 10 mg/kg (in some compounds, 3 mg/kg). In the control group, only 0.5% methyl cellulose solution was administered likewise. The blood pressure was measured for 5 hours after the administration of test compounds.

[2] = system: isolated heart; experiment: Experiment 2-1 Activity on isolated heart; design: species or system Japanese white rabbit; details: for activation at 3 µg/heart / inhibition at 3 µg/heart, 3 µg/heart / inhibition at 3 µg/heart: Oryctolagus cuniculus, 3 μg/heart; for activation at 3 µg/heart: read-out: Increase of coronary perfusion; for inhibition at 3 µg/heart, 3 µg/heart: read-out: Inhibitory rate of systole; for inhibition at 3 µg/heart: read-out: Reducing rate of heart pulse
Protocol: Japanese white rabbit (weighing 2.2-2.5 kg) was anesthetized by introvenous injection of nembutal (20 mg/kg) and then sacrificed by bleeding from common carotid artery. […] After stabilizing the heart preparation for 90 minutes, the test compound was administered. There were measured the perfusion volume with a drop-counting meter (ET-600G type, manufactured by Nippon Koden K.K.) and the heart pulse and the contractility via a force-displacement transducer (FD pick up, SB-IT type, manufactured by Nippon Koden K.K.) (for measuring heart pulse, an instant pulse meter (AT-601G type, minufactured by Nippon Koden K.K.) being further used).

[3] = system: isolated aorta; experiment: Experiment 3 Relaxing activity on the isolated aorta (30 mM KCl contracted); design: species or system Japanese white rabbit; details: for EC50: Oryctolagus cuniculus, 30 mM KCl contraction, maximum relaxation by papaverine = 100%, read-out: EC50 (concentration for 50% relaxation); for relaxing / vasodilating activity on isolated aorta (in words): Table 8, comparison with nifedipine and nicardipine hydrochloride, etc. where stated
Protocol: Japanese white rabbit (weighing 2.3-2.7 kg) was sacrificed by bleeding from common carotid artery. Immediately, the aorta was isolated and cut into a sprial strip. The strip preparation was vertically suspended under a resting tension of 2.0 g in a tissue bath containing 20 ml of modified Ringer solution while bubbling with a mixture of 95% O2 +5% CO2 by connecting one end of the strip to a lever of the above-mentioned FD pick up. The aortic strip was contracted with 30 mM KCl. When the contraction became constant, the test compound was accumulatively administered, and the relaxing effect was measured. After the final treatment, 10^-4T M papaverine was administered and the maximum relaxation obtained thereby was taken as 100%. In comparison with the maximum relaxation obtained by papaverine, the rate of relaxation by the test compounds was evaluated, and the concentration of the test compounds for obtaining 50% relaxation (EC50) was calculated.
The test compound was dissolved in ethanol, and the solution was diluted in 100 to 1×10^4 folds with a nutrient solution, and the diluted solution was administered.

Compound	EC50 [3]	Recovering time [1]	Time for recovering 1/2 of max. hypotension [1]	Time until reaching to max. hypotension [1]	Maximum hypotension [1]	hypotensive activity (in words) [1]	activation at 3 µg/heart [2]	inhibition at 3 µg/heart, 3 µg/heart [2]	inhibition at 3 µg/heart [2]	inhibitions on the heart pulse and contactility (in words) ([2]; Table 6)	relaxing / vasodilating activity on isolated aorta (in words) [3]	coronary vasodilating activity (in words) ([2]; Table 6, comparison with nifedipine and nicardipine hydrochloride, etc.)
CCCCCCCOC(=O)C1=C(C)NC(C)=C(C(=O)NC(C)C)C1c1ccccc1[N+](=O)[O-] (centres unmarked) [Example 1, n-heptyl 2,6-dimethyl-3-isopropylaminocarbonyl-4-(o-nitrophenyl)-1,4-dihydropyridine-5-carboxylate]	580 nM	> 5.0 h	> 5.0 h	30 min	78 mmHg	the same or more potent activity with longer duration; also recorded: potent hypotensive activity	25%	40%	15%	moderate inhibitions on the heart pulse and contactility	somewhat weak vasodilating activity	
COC(=O)C1=C(C)NC(C)=C(C(=O)NC(C)C)C1c1ccccc1[N+](=O)[O-] (centres unmarked) [Example 5, methyl 2,6-dimethyl-3-isopropylaminocarbonyl-4-(o-nitrophenyl)-1,4-dihydropyridine-5-carboxylate]	20 nM	> 5.0 h	5.0 h	15 min	70 mmHg	the same or more potent activity with longer duration	28%	15%	25%		the same or more potent activity	the same or more potent coronary vasodilating activity with longer duration
CCCOC(=O)C1=C(C)NC(C)=C(C(=O)NC(C)C)C1c1ccccc1[N+](=O)[O-] (centres unmarked) [Example 44]	17 nM	4.0 h	2.5 h	15 min	60 mmHg		30%	20%	16%		the same or more potent activity	
CC1=C(C(=O)NC(C)C)C(c2ccccc2[N+](=O)[O-])C(C(=O)OCC(C)C)=C(C)N1 (centres unmarked) [Example 46]	70 nM	1.5 h	0.5 h	15 min	10 mmHg		14%	9%	3%		the same or more potent activity	
CCCCOC(=O)C1=C(C)NC(C)=C(C(=O)NC(C)C)C1c1cccc([N+](=O)[O-])c1 (centres unmarked) [Example 64]	150 nM	5.0 h	2.0 h	30 min	57 mmHg		12%	0%	4%			
CC1=C(C(=O)NC(C)C)C(c2cccc([N+](=O)[O-])c2)C(C(=O)OCC(C)C)=C(C)N1 (centres unmarked) [Example 65]	130 nM	2.5 h	1.5 h	30 min	50 mmHg		8%	5%	8%			
CCCCOC(=O)C1=C(C)NC(C)=C(C(=O)NCCC)C1c1cccc([N+](=O)[O-])c1 (centres unmarked) [Example 68]	100 nM	1.0 h	0.5 h	15 min	5 mmHg		29%	6%	11%			

Further compounds by falling EC50 [3], results first:

EC50 [3]	Compound	Recovering time [1]	Time for recovering 1/2 of max. hypotension [1]	Time until reaching to max. hypotension [1]	Maximum hypotension [1]	hypotensive activity (in words) [1]	activation at 3 µg/heart [2]	inhibition at 3 µg/heart, 3 µg/heart [2]	inhibition at 3 µg/heart [2]	inhibitions on the heart pulse and contactility (in words) ([2]; Table 6)	relaxing / vasodilating activity on isolated aorta (in words) [3]	coronary vasodilating activity (in words) ([2]; Table 6, comparison with nifedipine and nicardipine hydrochloride, etc.)
420 nM	CCCCCCCCCCOC(=O)C1=C(C)NC(C)=C(C(=O)NC(C)C)C1c1ccccc1[N+](=O)[O-] (centres unmarked) [Example 52]	1.0 h	0.5 h	15 min	12 mmHg		20%	45%	15%	moderate inhibitions on the heart pulse and contactility		
170 nM	CC1=C(C(=O)NC(C)C)C(c2ccccc2[N+](=O)[O-])C(C(=O)OC(C)C)=C(C)N1 (centres unmarked) [Example 45]	1.5 h	0.5 h	15 min	15 mmHg		0%	0%	0%			
130 nM	CC1=C(C(=O)NC(C)C)C(c2ccccc2[N+](=O)[O-])C(C(=O)OCCCC(C)C)=C(C)N1 (centres unmarked) [Example 51]	> 5.0 h	3.0 h	30 min	40 mmHg		40%	30%	25%			
30 nM	CCCCCOC(=O)C1=C(C)NC(C)=C(C(=O)NC(C)C)C1c1ccccc1[N+](=O)[O-] (centres unmarked) [Example 8, n-pentyl 2,6-dimethyl-3-isopropylaminocarbonyl-4-(o-nitrophenyl)-1,4-dihydropyridine-5-carboxylate]	5.0 h	4.0 h	15 min	30 mmHg		35%	13%	5%		the same or more potent activity	
20 nM	CC1=C(C(=O)NC(C)C)C(c2ccccc2[N+](=O)[O-])C(C(=O)OCCC(C)C)=C(C)N1 (centres unmarked) [Example 47]	3.0 h	2.0 h	30 min	32 mmHg		35%	5%	11%		the same or more potent activity	
18 nM	CCOC(=O)C1=C(C)NC(C)=C(C(=O)NC(C)C)C1c1ccccc1[N+](=O)[O-] (centres unmarked) [Example 43]	5.0 h	2.5 h	15 min	68 mmHg		35%	35%	40%		the same or more potent activity	
12 nM	CCCCOC(=O)C1=C(C)NC(C)=C(C(=O)NC(C)C)C1c1ccccc1[N+](=O)[O-] (centres unmarked) [Example 6, n-butyl 2,6-dimethyl-3-isopropylaminocarbonyl-4-(o-nitrophenyl)-1,4-dihydropyridine-5-carboxylate]	5.0 h	3.5 h	15 min	57 mmHg		35%	25%	13%		the same or more potent activity	
